The text below walks through data of the supplement of paper PMC10307832.

Assay in all cases: relative viability (nuclei count vs DMSO), 5 days (fraction); higher = more cells survive
Compound in the experiment “FH535 + Phenformin”: CC1=C(C=CC(=C1)[N+](=O)[O-])NS(=O)(=O)C2=C(C=CC(=C2)Cl)Cl [FH535] + N=C(N)NC(=N)NCCc1ccccc1 [Phenformin] (partner 250 µM)
The procedure, abridged:
(§1)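 Values are medians from duplicate plates. Each reflects relative viability, defined as the nuclei count of treated wells over that of vehicle wells. Lung cancer cell lines in 1536-well plates were pin-tool dosed one day after seeding with one drug alone or with a fixed anchor-drug dose plus five library-drug doses (not always all listed) in √10 steps, then fixed, stained and imaged at 4× after 5 days.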

Compound in the experiment “FH535 + Decitabine”: CC1=C(C=CC(=C1)[N+](=O)[O-])NS(=O)(=O)C2=C(C=CC(=C2)Cl)Cl [FH535] + Nc1ncn([C@H]2C[C@H](O)[C@@H](CO)O2)c(=O)n1 [Decitabine] (partner 2 µM)
The essentials:
as §1

Compound in the experiment “FH535 + Linsitinib”: CC1=C(C=CC(=C1)[N+](=O)[O-])NS(=O)(=O)C2=C(C=CC(=C2)Cl)Cl [FH535] + C[C@]1(O)C[C@@H](c2nc(-c3ccc4ccc(-c5ccccc5)nc4c3)c3c(N)nccn32)C1 [Linsitinib] (partner 1 µM)
The procedure, abridged: as §1

Compound in the experiment “FH535 + Bortezomib”: CC1=C(C=CC(=C1)[N+](=O)[O-])NS(=O)(=O)C2=C(C=CC(=C2)Cl)Cl [FH535] + CC(C)C[C@H](NC(=O)[C@H](Cc1ccccc1)NC(=O)c1cnccn1)B(O)O [Bortezomib] (partner 0.002 µM)
The essentials: as §1

Compound in the experiment “FH535 + AZD7762”: CC1=C(C=CC(=C1)[N+](=O)[O-])NS(=O)(=O)C2=C(C=CC(=C2)Cl)Cl [FH535] + NC(=O)Nc1cc(-c2cccc(F)c2)sc1C(=O)N[C@H]1CCCNC1 [AZD7762] (partner 0.2 µM)
The essentials:
as §1

For the cell line HCC-366, the relative viability stood at 0.607 with FH535 + Phenformin (first compound 0.04 µM); 0.522 in the experiment with FH535 + Phenformin (first compound 0.1265 µM); 0.48 in the experiment with FH535 + Phenformin (first compound 0.4 µM); 0.41 in the experiment with FH535 + Phenformin (first compound 1.265 µM); 0.308 with FH535 + Decitabine (first compound 0.04 µM); 0.342 with FH535 + Decitabine (first compound 0.1265 µM). Moreover, the relative viability in the experiment with FH535 + Decitabine (first compound 0.4 µM) came out at 0.335; with FH535 + Decitabine (first compound 1.265 µM), 0.293; in the experiment with FH535 + Linsitinib (first compound 0.04 µM), 0.578; with FH535 + Linsitinib (first compound 0.1265 µM), 0.852; in the experiment with FH535 + Linsitinib (first compound 0.4 µM), 0.514; with FH535 + Linsitinib (first compound 1.265 µM), 0.465. Also, the relative viability in the experiment with FH535 + Bortezomib (first compound 0.04 µM) worked out at 1.1; with FH535 + Bortezomib (first compound 0.1265 µM) it was 1.12; with FH535 + Bortezomib (first compound 0.4 µM) it was 0.987; with FH535 + Bortezomib (first compound 1.265 µM), 0.925; with FH535 + AZD7762 (first compound 0.04 µM), 0.244; with FH535 + AZD7762 (first compound 0.1265 µM), 0.289. The relative viability with FH535 + AZD7762 (first compound 0.4 µM) turned out to be 0.307; with FH535 + AZD7762 (first compound 1.265 µM) it was 0.247.
Consider HCC-827, for which the relative viability with FH535 + Phenformin (first compound 0.04 µM) came to 0.407; with FH535 + Phenformin (first compound 0.1265 µM) it was 0.387; in the experiment with FH535 + Phenformin (first compound 0.4 µM), 0.383; with FH535 + Phenformin (first compound 1.265 µM), 0.313; with FH535 + Decitabine (first compound 0.04 µM), 0.297; in the experiment with FH535 + Decitabine (first compound 0.1265 µM) it was 0.334. In addition, the relative viability stood at 0.323 with FH535 + Decitabine (first compound 0.4 µM); 0.296 with FH535 + Decitabine (first compound 1.265 µM); 0.89 with FH535 + Linsitinib (first compound 0.04 µM); 0.937 with FH535 + Linsitinib (first compound 0.1265 µM); 0.863 with FH535 + Linsitinib (first compound 0.4 µM); 0.714 with FH535 + Linsitinib (first compound 1.265 µM). For the same cell line, the relative viability with FH535 + Bortezomib (first compound 0.04 µM) is 1.01; with FH535 + Bortezomib (first compound 0.1265 µM), 0.953; with FH535 + Bortezomib (first compound 0.4 µM) it was 1.04; in the experiment with FH535 + Bortezomib (first compound 1.265 µM), 0.849; in the experiment with FH535 + AZD7762 (first compound 0.04 µM), 0.203; in the experiment with FH535 + AZD7762 (first compound 0.1265 µM) it was 0.205. For the same cell line, the values for the relative viability with FH535 + AZD7762 (first compound 0.4 µM) and with FH535 + AZD7762 (first compound 1.265 µM) were 0.278 and 0.221, respectively.
Turning to IA-LM, the relative viability with FH535 + Linsitinib (first compound 0.04 µM) was determined as 0.624; with FH535 + Linsitinib (first compound 0.1265 µM), 0.525; with FH535 + Linsitinib (first compound 0.4 µM) it was 0.687; with FH535 + Linsitinib (first compound 1.265 µM), 0.45; in the experiment with FH535 + Bortezomib (first compound 0.04 µM) it was 0.89; in the experiment with FH535 + Bortezomib (first compound 0.1265 µM), 0.799. The relative viability is 0.747 with FH535 + Bortezomib (first compound 0.4 µM) and 0.47 in the experiment with FH535 + Bortezomib (first compound 1.265 µM).
On to LK-2, for which the relative viability with FH535 + Phenformin (first compound 0.04 µM) turned out to be 0.35; with FH535 + Phenformin (first compound 0.1265 µM), 0.521; in the experiment with FH535 + Phenformin (first compound 0.4 µM), 0.495; with FH535 + Phenformin (first compound 1.265 µM), 0.211; with FH535 + Decitabine (first compound 0.04 µM), 0.254; with FH535 + Decitabine (first compound 0.1265 µM), 0.26. Besides, the relative viability with FH535 + Decitabine (first compound 0.4 µM) was 0.298; with FH535 + Decitabine (first compound 1.265 µM), 0.286; with FH535 + Linsitinib (first compound 0.04 µM), 0.477; in the experiment with FH535 + Linsitinib (first compound 0.1265 µM), 0.487; with FH535 + Linsitinib (first compound 0.4 µM), 0.673; with FH535 + Linsitinib (first compound 1.265 µM), 0.561. Besides, the relative viability came out at 0.425 with FH535 + AZD7762 (first compound 0.04 µM), 0.459 in the experiment with FH535 + AZD7762 (first compound 0.1265 µM), 0.323 in the experiment with FH535 + AZD7762 (first compound 0.4 µM) and 0.39 with FH535 + AZD7762 (first compound 1.265 µM).
Regarding NCI-H358, the relative viability in the experiment with FH535 + Phenformin (first compound 0.04 µM) came to 0.256; with FH535 + Phenformin (first compound 0.1265 µM), 0.327; with FH535 + Phenformin (first compound 0.4 µM), 0.265; with FH535 + Phenformin (first compound 1.265 µM) it was 0.153; in the experiment with FH535 + Decitabine (first compound 0.04 µM), 0.151; with FH535 + Decitabine (first compound 0.1265 µM) it was 0.219. For the same cell line, the relative viability in the experiment with FH535 + Decitabine (first compound 0.4 µM) stood at 0.205; in the experiment with FH535 + Decitabine (first compound 1.265 µM) it was 0.182; in the experiment with FH535 + Linsitinib (first compound 0.04 µM), 0.696; with FH535 + Linsitinib (first compound 0.1265 µM), 0.822; with FH535 + Linsitinib (first compound 0.4 µM), 0.791; with FH535 + Linsitinib (first compound 1.265 µM), 0.552. The relative viability in the experiment with FH535 + AZD7762 (first compound 0.04 µM) turned out to be 0.495; with FH535 + AZD7762 (first compound 0.1265 µM), 0.571; with FH535 + AZD7762 (first compound 0.4 µM) it was 0.529; with FH535 + AZD7762 (first compound 1.265 µM), 0.252.
